Reference: patent US20250011296A1, “MODULATORS OF MOLECULAR TARGETS EXPRESSED IN METABOLIC AND INFLAMMATORY DISORDERS” (Ohio State Innovation Foundation, priority 2021, published 2025)
Entries after “also recorded” stand apart in the source; their conditions may differ. Like-named read-outs stand apart in the source and are kept apart here.

Columns and labels:
NFκB = target: T1, NFκB (Homo sapiens, UniProt Q04206); assay: NFκB assay (EZ-Detect Transcription Factor Assay kit; TNF-α-treated HeLa cells, nuclear extracts); assay type: cell-based
T1 construct: endogenous in cells; host or cells: HeLa cells (ATCC), nuclear extract
T1 sequence (Q04206 whole entry): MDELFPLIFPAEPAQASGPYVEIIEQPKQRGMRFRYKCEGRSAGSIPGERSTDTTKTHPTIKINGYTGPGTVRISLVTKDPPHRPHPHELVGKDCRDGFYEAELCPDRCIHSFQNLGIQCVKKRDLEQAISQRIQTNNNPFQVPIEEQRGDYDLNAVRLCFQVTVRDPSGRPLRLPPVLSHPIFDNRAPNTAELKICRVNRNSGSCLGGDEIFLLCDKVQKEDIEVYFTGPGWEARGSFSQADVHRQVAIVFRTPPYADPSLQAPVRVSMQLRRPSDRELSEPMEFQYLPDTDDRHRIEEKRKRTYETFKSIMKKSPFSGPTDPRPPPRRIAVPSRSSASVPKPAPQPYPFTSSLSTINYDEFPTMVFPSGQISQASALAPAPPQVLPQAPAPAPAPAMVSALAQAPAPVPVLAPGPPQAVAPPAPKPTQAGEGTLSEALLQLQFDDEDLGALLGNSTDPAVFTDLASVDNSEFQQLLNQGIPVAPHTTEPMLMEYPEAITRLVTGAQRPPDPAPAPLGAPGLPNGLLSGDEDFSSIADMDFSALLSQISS
Procedure: To assess the ability of natural product extracts and compounds to inhibit the specific binding of activated NFκB transcription factor to the biotinylated consensus sequence, the EZ-Detect™ Transcription Factor Assay kit (Pierce Biotechnology) was used according to the kit manual and established protocol. HeLa cells (ATCC) were treated with each test sample and TNF-α, nuclear extracts harvested using the NE-PER kit (Pierce Biotechnology), and protein content equilibrated using the Pierce BCA Protein Assay kit (Pierce Biotechnology). Specific binding was detected through quantification of chemiluminescent signal in a plate reader (FLUOstar Optima, BMG Labtechnologies GmbH, Inc.).

PPAR-γ = target: T2, PPAR-γ (Homo sapiens, UniProt P37231); assay: PPAR-γ ELISA assay (PPAR-α,γ,δ Complete Transcription Factor Assay Kit; CCD-112CoN or Hela cells, nuclear extracts); assay type: cell-based
T2 construct: endogenous in cells; host or cells: CCD-112CoN normal colon cells or HeLa cells (ATCC), nuclear extract
T2 sequence (P37231 1-505): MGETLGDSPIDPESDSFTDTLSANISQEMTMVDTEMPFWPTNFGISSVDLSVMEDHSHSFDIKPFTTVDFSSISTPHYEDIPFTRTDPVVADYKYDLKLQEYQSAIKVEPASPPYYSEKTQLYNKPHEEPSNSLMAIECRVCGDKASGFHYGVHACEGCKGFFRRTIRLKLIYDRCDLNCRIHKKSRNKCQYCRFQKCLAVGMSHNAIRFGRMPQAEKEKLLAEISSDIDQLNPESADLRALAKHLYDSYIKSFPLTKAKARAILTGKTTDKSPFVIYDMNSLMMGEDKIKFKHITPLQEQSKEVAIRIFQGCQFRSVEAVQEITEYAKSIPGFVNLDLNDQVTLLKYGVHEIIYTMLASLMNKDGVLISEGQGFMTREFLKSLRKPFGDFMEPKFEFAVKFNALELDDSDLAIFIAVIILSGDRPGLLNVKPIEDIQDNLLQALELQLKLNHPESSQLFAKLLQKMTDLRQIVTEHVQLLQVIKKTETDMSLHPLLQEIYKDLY
Procedure: To evaluate the ability of natural product extracts and compounds to induce specific binding of PPAR-γ transcription factor in nuclear extracts to immunosorbed peroxisome proliferator response element, the PPAR-α,γ,δ Complete Transcription Factor Assay Kit (Cayman Chemical Company) was used according to the kit protocol. 303 CCD-112CoN normal colon cells or Hela cells (ATCC) were treated with mace extracts or isolated compounds for 24 h, nuclear extracts were harvested using the NE-PER kit (Pierce Biotechnology), and protein content equilibrated using the Pierce BCA Protein Assay kit (Pierce Biotechnology). Specific binding was detected through quantification of absorptivity at 630 nm in a BioTek uQuant microplate reader (BioTek Instruments, Inc.). […] Licarin A derivatives 45-48 were screened through the panel of in vitro assays to evaluate their potential as antidiabetic compound leads. […] Methods for the assay were as described above.

[1] = test system: HbA1C (glycated hemoglobin) expression; assay: Larval diabetic zebrafish assay, Western blot of HbA1C; assay type: in vivo; conditions: diabetic zebrafish larvae, 10 μM
Procedure: Following isolation, derivatization, and analysis of compounds 41-48 through the in vitro panel of assays, the mace natural products and licarin A derivatives were investigated in the larval diabetic zebrafish assay for potential antidiabetic activity. Western blot analysis of zebrafish expression levels for glycated hemoglobin, metabolic enzymes, and molecular targets NFκB and PPAR-γ was performed to evaluate potential lead improvement and to discover possible mechanisms of action.
(§1) Wild-type zebrafish were sorted into 24-well microplates with 10 fish per well for a four-phase treatment cycle. At 72 hpf, type 2 diabetes was induced by administering 0.5 mg/mL alloxan in fish water for percutaneous absorption. After three hours of alloxan treatment, phase two of the treatment cycle was initiated by administering 10 μM doses of natural product compounds 41-43 (FIG. 4) or derivatives 45-48 (FIG. 6) with 0.01% DMSO in system water. At 78 hpf, the incubation solution was changed to 10 mg/ml D-glucose for 30 minutes, followed by a phase-four rinse in fresh system w Following the four-phase treatment cycle, zebrafish treatment groups were snap frozen in microcentrifuge tubes on dry ice, stored overnight at −80° C., thawed, and homogenized with 2 μL PBS per animal. Following centrifugation (60 minutes at 4° C. and 17,000 rpm), protein content of the homogenate supernatant was determined using the Pierce BCA Protein Assay kit (Pierce Biotechnology). Homogenates were analyzed by Western blot with equal amounts of total protein (20 μg) in each sample and using 4×LDS loading buffer (NuPAGE Life Technologies). The immunoblot samples were heated at 95° C. for 5 minutes and loaded onto NuPAGE Bis-Tris 4-12% gradient SDS-PAGE gels.
(§2) Electrophoresis was performed with NuPAGE MES SDS Running Buffer and using the XCell SureLock Mini-Cell Electrophoresis System (Life Technologies). Proteins separated on the gel were transferred to a PVDF membrane using TBST buffer. The blots were blocked in 3% BSA in TBST and subsequently probed overnight with primary antibodies (1:1000 in 1% BSA in TBST) against each target of interest. Following TBST rinses, secondary HRP-conjugated antibodies (1:2000) were applied to the membrane for 60 minutes. The HRP conjugated antibodies were detected using SuperSignal West Femto chemiluminescent substrate (Pierce Biotechnology) and immunoblot images were captured using the luminometer and Lumi Analyst 3.0 software.
(§3) Band densities were determined using ImageJ Gel Analysis to determine expression levels of each protein of interest. Expression levels of HbA1C, PPAR-γ, and NFκB were organized into a bar graphs (FIG. 5) with band densities calculated in comparison to the housekeeping gene β-actin, normalized to the untreated diabetic group (B) of zebrafish. […].

PPAR-γ expression = assay: Larval diabetic zebrafish assay, Western blot of PPAR-γ; assay type: in vivo; conditions: diabetic zebrafish larvae, 10 μM
Procedure: Western blot analysis of zebrafish expression levels for glycated hemoglobin, metabolic enzymes, and molecular targets NFκB and PPAR-γ was performed to evaluate potential lead improvement and to discover possible mechanisms of action.
as §1, with “After three hours of alloxan treatment, phase two of the treatment cycle was initiated by administering 10 μM doses of natural product compounds 41-43 (FIG. 4) or derivatives 45-48 (FIG. 6) with 0.01% DMSO in system water.” left out, “Technologies).” for “Technologies). The immunoblot samples were heated at 95° C. for 5 minutes and loaded onto NuPAGE Bis-Tris 4-12% gradient SDS-PAGE gels.”
as §2, §3

[2] = Table 20 summary, read-out: NFκBIC50
[3] = preliminary Western blot (FIG. 5), not in replicate
[4] = preliminary Western blot (FIG. 4/5)

IC50 (NFκB; [2])	IC50 (NFκB; in vitro NFκB assay)	PPAR-γ % activation (PPAR-γ; Table 14, isolates at 50 μg/mL)	PPAR-γ % activation (PPAR-γ; Table 20 summary, 50 μg/mL)	IC50 (NFκB; Table 13, tested at 50, 5, 0.5 and 0.05 μg/mL)	PPAR-γ activity, % as active/effective as positive control rosiglitazone (PPAR-γ; 50 μg/mL)	PPAR-γ activity in vitro (PPAR-γ; preliminary screening, 50 μg/mL)	SMILES	HbA1C expression (band density) [1, 3]	PPAR-γ expression (band density) (PPAR-γ expression; [4])	HbA1C expression (band density) ([1]; duplicate Western blot (FIG. 7))	PPAR-γ expression (band density) (PPAR-γ expression; duplicate Western blot (FIG. 8))
0.479 µM	0.475 µM	45%	45%	–	–	–	C/C=C/c1cc(OC)c2c(c1)[C@H](C)[C@@H](c1ccc3c(c1)OCO3)O2 [Compound 41, licarin B]	HbA1C levels even lower than those treated with the thiazolidinedione rosiglitazone; also recorded: excellent hypoglycemic effect	did not upregulate PPAR-γ expression	–	–
0.0306 µM	0.0306 µM	81%	81%	0.0306 µM	81%	moderate PPAR-Y activity	C/C=C/c1cc(OC)c2c(c1)[C@H](C)[C@@H](c1ccc(O)c(OC)c1)O2 [Compound 42, licarin A]	least effective of the three natural products at reducing HbA1C expression	greater PPAR-γ expression that 41	most effective test samples for decreasing HbA1C	reliably intermediate between the rosiglitazone-treated and untreated diabetic groups
